Like-named read-outs stand apart in the source and are kept apart here. Numbered stars: 1 amine (or outer) side, 2 acyl side, 3 side chain; on linkers, the order of the positions; unused ones are H or OH. Square brackets hold non-standard residues; d marks the D form. Peptide text beside a SMILES is read from it. Hexadecanoyl(3R-amino) = CCCCCCCCCCCCC[C@H](CC(=O)[*:2])N[*:1]; X1 = CCC(C)CCCCCCCCCC[C@H](CC(=O)[*:2])N[*:1]; X3 = CC(C)CCCCCCCCCC[C@H](CC(=O)[*:2])N[*:1]
Tests used:
[1] = test system: liver cancer cell line HepG2; test: MTT cytotoxicity assay against HepG2
Description: (§1) Two human cancer cell lines, liver cancer cell line HepG2, and breast cancer cell line MCF7, were used in the assays.
(§2) HepG2 and MCF7 cell lines were purchased from Peking Union Medical College, Cell Bank (Beijing, China). In this study, the cells were grown in Dulbecco’s modified Eagle’s medium (Hyclone, Waltham, MA, USA), supplemented with 10% fetal bovine serum (FBS, PAN Biotech, Aidenbach, Germany), penicillin (100 U/mL), and streptomycin (100 µg/mL) in a humidified incubator containing 95% air and 5% CO2 at 37 °C. Cell viability was detected by MTT colorimetric assay. Briefly, the cells were treated with different concentrations of compounds (in DMSO stock) for 48 h, with taxol as the positive control. Then, culture supernatants were replaced with medium containing 0.5 mg/mL MTT for 4 h. The supernatant was removed and 100 μL of dimethyl sulfoxide was added. Absorbance was detected at 550 nm and cell viability was expressed as the mean percentage of the absorbance in treated vs. control cells. Different concentrations of compounds ranging from 0.1 to 40 µM were tested and each of the concentration was tested in parallel triplicate. Six concentration points in the slope region were used in the calculation of IC50 values. The IC50 values were calculated from the concentration–response curves that were generated by nonlinear regression with Graph Pad Prism 5 software (Graph Pad Software, Inc., San Diego, CA, USA).

[2] = test system: breast cancer cell line MCF7; test: MTT cytotoxicity assay against MCF7
Description: as §1, §2

[3] = test system: human cancer cell line HCT-15; settings: lipopeptide proposed as bacillomycin D only based on LC-MS analysis; result in words; cited from earlier work
Description: (§3) Compounds 1–10 were tested for their antitumor activities.

[4] = test system: human cancer cell line A549; settings: lipopeptide proposed as bacillomycin D only based on LC-MS analysis; result in words; cited from earlier work
Description: as §3

[5] = test system: human cancer cell line A498; settings: lipopeptide proposed as bacillomycin D only based on LC-MS analysis; result in words; cited from earlier work
Description: as §3

CC(=O)O[C@H]1C(=O)[C@@]2(C)[C@H]([C@H](OC(=O)c3ccccc3)[C@]3(O)C[C@H](OC(=O)[C@H](O)[C@@H](NC(=O)c4ccccc4)c4ccccc4)C(C)=C1C3(C)C)[C@]1(OC(C)=O)CO[C@@H]1C[C@@H]2O [Taxol, reference compound]
IC50 ([1]; Homo sapiens, HepG2, 48 h, read-out: Cytotoxicity (IC50 Values in µM), HepG2): 0.075 ± 0.004 µM | IC50 ([2]; Homo sapiens, MCF7, 48 h, read-out: Cytotoxicity (IC50 Values in µM), MCF7): 0.043 ± 0.003 µM

CC(C)CCCCCCCCCC[C@@H]1CC(=O)N[C@@H](CC(N)=O)C(=O)N[C@H](Cc2ccc(O)cc2)C(=O)N[C@H](CC(N)=O)C(=O)N2CCC[C@H]2C(=O)N[C@@H](CCC(=O)O)C(=O)N[C@H](CO)C(=O)N[C@@H]([C@@H](C)O)C(=O)N1 [Compound 8, iso-C16 bacillomycin D] (cyclo(E[dS]T[X3]N[dY][dN]P))
IC50 ([1]; human, 48 h): 5.1 ± 0.2 µM | IC50 ([2]; human, 48 h): 2.9 ± 0.1 µM

bacillomycin D [Compound 5]
inhibitory activities against HCT-15 [3]: inhibitory activities | inhibitory activities against A549 [4]: inhibitory activities | inhibitory activities against A498 [5]: inhibitory activities | inhibition rate, HepG2 ([1]; HepG2, at the concentration of 10 µM, MTT, 48 h, described as no cytotoxicities): below 20% | inhibition rate, MCF7 ([2]; MCF7, at the concentration of 10 µM, MTT, 48 h, described as no cytotoxicities): below 20%

CCC(C)CCCCCCCCCC[C@@H]1CC(=O)N[C@@H](CC(N)=O)C(=O)N[C@H](Cc2ccc(O)cc2)C(=O)N[C@H](CC(N)=O)C(=O)N2CCC[C@H]2C(=O)N[C@@H](CCC(=O)O)C(=O)N[C@H](CO)C(=O)N[C@@H]([C@@H](C)O)C(=O)N1 (stereo partly shown) [Compound 10, anteiso-C17 bacillomycin D] (cyclo(E[dS]T[X1]N[dY][dN]P))
IC50 ([1]; human, 48 h): > 10 µM | IC50 ([2]; human, 48 h): 7.2 ± 0.2 µM

CCCCCCCCCCCCC[C@@H]1CC(=O)N[C@@H](CC(N)=O)C(=O)N[C@H](Cc2ccc(O)cc2)C(=O)N[C@H](CC(N)=O)C(=O)N2CCC[C@H]2C(=O)N[C@@H](CCC(=O)O)C(=O)N[C@H](CO)C(=O)N[C@@H]([C@@H](C)O)C(=O)N1 [Compound 9, C16 bacillomycin D] (cyclo(E[dS]T[Hexadecanoyl(3R-amino)]N[dY][dN]P))
IC50 ([1]; human, 48 h): 4.9 ± 0.2 µM | IC50 ([2]; human, 48 h): 3.3 ± 0.1 µM

From PMC5793070, “Bacillibactin and Bacillomycin Analogues with Cytotoxicities against Human Cancer Cell Lines from Marine Bacillus sp. PKU-MA00093 and PKU-MA00092” (Marine Drugs, 2018)
